For this series, the system named is MCF7 human breast cancer cell line. Description: Cytotoxic activity test, MTT method, MCF7 cells. Format: cell-based. Conditions: for inhibition rate: compound at 50 µM, dissolved in DMSO. The source says:
Dimethyl sulfoxide (DMSO) was used to dissolve the tested compounds.

Substance neoantimycin D [Compound 5] registered an inhibition rate of 91.08%. Further, for the setting “preliminary in vitro test”, the “cytotoxic activity (in words)” value is “weak cytotoxic activity”.
As to neoantimycin E [Compound 6], the inhibition rate was 90.53%.

The values above are taken from PMC8623215, “Zhaoshumycins A and B, Two Unprecedented Antimycin-Type Depsipeptides Produced by the Marine-Derived Streptomyces sp. ITBB-ZKa6” (Marine Drugs, 2021).
